The results in this text go back to patent US20080214622A1, “Substituted Triazole Derivatives As Oxytocin Antagonists” (priority 2005, published 2008).

In this assay the target is T1, Oxytocin Receptor (Homo sapiens, UniProt P30559).
T1 sequence (P30559 1-389): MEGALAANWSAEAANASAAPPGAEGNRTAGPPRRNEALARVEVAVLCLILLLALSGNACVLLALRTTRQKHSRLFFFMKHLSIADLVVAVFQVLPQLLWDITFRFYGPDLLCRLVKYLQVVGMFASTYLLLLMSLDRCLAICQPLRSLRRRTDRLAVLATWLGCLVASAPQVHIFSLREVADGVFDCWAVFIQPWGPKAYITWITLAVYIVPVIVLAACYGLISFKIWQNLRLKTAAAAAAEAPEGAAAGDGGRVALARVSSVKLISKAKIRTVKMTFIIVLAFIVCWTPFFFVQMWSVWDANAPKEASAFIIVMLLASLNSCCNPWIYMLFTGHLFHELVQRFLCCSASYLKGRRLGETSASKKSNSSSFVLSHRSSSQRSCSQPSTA
The assay is described as follows: Oxytocin Receptor Beta-lactamase assay (as detailed in WO 2004/020414). The class given is cell-based. As to conditions: read-out: Ki value (Oxytocin antagonist activity). An excerpt: A suitable assay for determining the Oxytocin antagonist activity of a compound is detailed in International Patent Application WO 2004/020414.
Regarding `COc1ccc(-n2c(Cn3nccn3)nnc2-c2ccc(-c3ccccc3OC)cc2)cc1` [Example 25], the Ki (usually the dissociation constant of the complex between target and ligand, obtained from inhibition or displacement) is 0.0117 µM.
Turning to `COc1ccc(-n2c(C)nnc2-c2ccc(-c3ccccc3OC)cc2OC)cc1` [Example 10, 3-(2′,3-Dimethoxybiphenyl-4-yl)-4-(4-methoxyphenyl)-5-methyl-4H-1,2,4-triazole], the Ki turned out to be 0.0146 µM.
In the case of `COc1ccc(-n2c(C)nnc2-c2ccc(-c3ccccc3OC)cc2)c(OCCN2CCOCC2)n1` [Example 2, 4-[2-({6-Methoxy-3-[3-(2′-methoxybiphenyl-4-yl)-5-methyl-4H-1,2,4-triazol-4-yl]pyridin-2-yl}oxy)ethyl]morpholine], the Ki is 0.0112 µM.
As for `COCCOc1nc(OC)ccc1-n1c(C)nnc1-c1ccc(-c2ccccc2OC)cc1` [Example 32, 6-Methoxy-3-[3-(2′-methoxybiphenyl-4-yl)-5-methyl-4H-1,2,4-triazol-4-yl]-2-(2-methoxyethoxy)pyridine], the figure is 0.0138 µM.
